The values below come from patent US11324738B2, “Muscarinic agonists” (Heptares Therapeutics Limited, priority 2015, dated 2022).

What all share (format): cell-based
Experiment [1] has as its target T1, human muscarinic M1 receptor (Homo sapiens, UniProt P11229).
T1 construct: expressed in transfected cells
T1 sequence (P11229 1-460): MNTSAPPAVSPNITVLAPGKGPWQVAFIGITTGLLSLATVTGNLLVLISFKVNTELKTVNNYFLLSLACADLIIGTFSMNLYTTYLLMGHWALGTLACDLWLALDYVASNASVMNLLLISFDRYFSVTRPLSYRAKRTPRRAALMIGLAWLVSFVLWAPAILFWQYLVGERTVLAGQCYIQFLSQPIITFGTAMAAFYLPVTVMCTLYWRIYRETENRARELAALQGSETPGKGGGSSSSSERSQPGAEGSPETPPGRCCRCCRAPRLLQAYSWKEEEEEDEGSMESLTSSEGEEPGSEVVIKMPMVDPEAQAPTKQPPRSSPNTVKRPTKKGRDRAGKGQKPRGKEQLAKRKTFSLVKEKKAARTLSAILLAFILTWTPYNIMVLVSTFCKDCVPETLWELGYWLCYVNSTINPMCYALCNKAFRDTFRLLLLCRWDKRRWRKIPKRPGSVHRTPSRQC
The experiment can be described thus: Alphascreen Surefire phospho-ERK1/2 functional assay, CHO cells expressing M1. The conditions noted are these: for Emax: CHO, read-out: % Emax cf. ACh, M1; for EC50: agonist, CHO cells, phospho-ERK1/2, read-out: pEC50 M1 (converted). How it is done: (§1) ERK1/2 phosphorylation is a downstream consequence of both Gq/11 and Gi/o protein coupled receptor activation, making it highly suitable for the assessment of M1, M3 (Gq/11 coupled) and M2, M4 receptors (Gi/o coupled), rather than using different assay formats for different receptor subtypes. CHO cells stably expressing the human muscarinic M1, M2, M3 or M4 receptor were plated (25K/well) onto 96-well tissue culture plates in MEM-alpha+10% dialysed FBS. Once adhered, cells were serum-starved overnight. Agonist stimulation was performed by the addition of 5 μL agonist to the cells for 5 min (37° C.). Media was removed and 50 μL of lysis buffer added. After 15 min, a 4 μL sample was transferred to 384-well plate and 7 μL of detection mixture added.
A general note: Alpha assays give light when donor and acceptor beads are brought close together.

The target in experiment [2] is T2, human muscarinic M2 receptor (Homo sapiens, UniProt P08172).
T2 construct: expressed in transfected cells
T2 sequence (P08172 1-466): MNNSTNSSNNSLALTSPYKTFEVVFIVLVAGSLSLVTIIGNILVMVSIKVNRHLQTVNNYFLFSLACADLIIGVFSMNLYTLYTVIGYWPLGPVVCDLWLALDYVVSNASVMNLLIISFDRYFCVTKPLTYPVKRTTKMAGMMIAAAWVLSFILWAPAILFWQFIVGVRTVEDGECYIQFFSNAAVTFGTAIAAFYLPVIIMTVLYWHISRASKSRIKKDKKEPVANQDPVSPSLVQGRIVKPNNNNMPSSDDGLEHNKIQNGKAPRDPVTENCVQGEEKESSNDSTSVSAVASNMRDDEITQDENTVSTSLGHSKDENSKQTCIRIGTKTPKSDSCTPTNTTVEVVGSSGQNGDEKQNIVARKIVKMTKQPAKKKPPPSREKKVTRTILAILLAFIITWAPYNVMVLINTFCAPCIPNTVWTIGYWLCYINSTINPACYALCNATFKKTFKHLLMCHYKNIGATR
Put plainly: Alphascreen Surefire phospho-ERK1/2 functional assay, CHO cells expressing M2. The conditions noted are these: for Emax: CHO, read-out: % Emax cf. ACh, M2; for EC50: agonist, CHO cells, phospho-ERK1/2, read-out: pEC50 M2 (converted). How it is done:
as §1

Experiment [3] addresses T3, human muscarinic M3 receptor (Homo sapiens, UniProt P20309).
T3 construct: expressed in transfected cells
Put plainly: Alphascreen Surefire phospho-ERK1/2 functional assay, CHO cells expressing M3. To be noted: for Emax: CHO, read-out: % Emax cf. ACh, M3; for EC50: agonist, CHO cells, phospho-ERK1/2, read-out: pEC50 M3 (converted). The protocol:
as §1

Experiment [4] deals with T4, human muscarinic M4 receptor (Homo sapiens, UniProt P08173).
T4 construct: expressed in transfected cells
T4 sequence (P08173 1-479): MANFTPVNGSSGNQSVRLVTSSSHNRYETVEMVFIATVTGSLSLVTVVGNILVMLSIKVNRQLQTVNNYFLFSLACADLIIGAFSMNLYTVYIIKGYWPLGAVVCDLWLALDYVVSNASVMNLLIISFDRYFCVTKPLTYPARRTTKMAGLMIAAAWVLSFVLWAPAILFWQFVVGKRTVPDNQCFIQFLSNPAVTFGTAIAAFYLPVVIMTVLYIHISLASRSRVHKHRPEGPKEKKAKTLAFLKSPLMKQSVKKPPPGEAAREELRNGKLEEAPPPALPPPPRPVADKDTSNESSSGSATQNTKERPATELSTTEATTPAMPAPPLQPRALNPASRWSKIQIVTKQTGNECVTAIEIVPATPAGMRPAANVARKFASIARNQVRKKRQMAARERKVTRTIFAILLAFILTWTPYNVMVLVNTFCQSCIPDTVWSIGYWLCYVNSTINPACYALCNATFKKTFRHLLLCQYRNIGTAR
The experiment can be described thus: Alphascreen Surefire phospho-ERK1/2 functional assay, CHO cells expressing M4. To be noted: for Emax: CHO, read-out: % Emax cf. ACh, M4; for EC50: agonist, CHO cells, phospho-ERK1/2, read-out: pEC50 M4 (converted). How it is done:
as §1

The term Emax denotes the size of the effect at its maximum, as opposed to the concentration needed.

T3 sequence (P20309 whole entry): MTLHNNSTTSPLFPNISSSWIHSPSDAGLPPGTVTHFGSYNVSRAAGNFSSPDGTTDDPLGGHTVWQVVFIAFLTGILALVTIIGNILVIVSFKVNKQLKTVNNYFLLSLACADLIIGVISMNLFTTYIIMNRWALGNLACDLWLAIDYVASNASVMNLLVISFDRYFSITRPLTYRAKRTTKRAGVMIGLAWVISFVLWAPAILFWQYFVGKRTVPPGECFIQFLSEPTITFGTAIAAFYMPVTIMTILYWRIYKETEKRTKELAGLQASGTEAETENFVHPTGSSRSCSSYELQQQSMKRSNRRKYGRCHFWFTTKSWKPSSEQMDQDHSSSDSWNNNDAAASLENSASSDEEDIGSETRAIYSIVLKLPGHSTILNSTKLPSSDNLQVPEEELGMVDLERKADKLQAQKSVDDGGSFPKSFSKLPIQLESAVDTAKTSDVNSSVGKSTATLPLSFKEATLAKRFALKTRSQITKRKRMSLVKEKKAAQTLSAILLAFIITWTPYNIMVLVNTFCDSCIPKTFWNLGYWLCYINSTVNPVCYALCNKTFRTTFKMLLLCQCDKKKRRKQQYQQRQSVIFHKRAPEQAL

As for `COC(=O)N1CC2(CCC(N3CCC(N4CCC[C@@H]4c4cnco4)CC3)C2)C1` (single isomer, unassigned) [Example 2-11 (Isomer 2)], the Emax in experiment [1] is 24%; in experiment [2], 6%; in experiment [3], 4%; in experiment [4] it was 100%. Moreover, the EC50 in experiment [1] is greater than 20000 nM; in experiment [2] it was greater than 20000 nM; in experiment [3], greater than 20000 nM; in experiment [4], 79.4 nM. In experiment [4] (statement in words), the “selectivity for the M4 receptor relative to the M1 receptor” value is “highly selective for the M4 receptor relative to the M1 receptor”.
As for `CCOC(=O)N1CC2(CCC(N3CCC(N4CCC[C@@H]4c4cnco4)CC3)C2)C1` (single isomer, unassigned) [Example 2-12 (Isomer 2)], the maximal response (Emax) in experiment [1] is 50%; in experiment [2], 7%; in experiment [3] it was 5%; in experiment [4] it was 114%. Further, the EC50 in experiment [1] was 31.6 nM; in experiment [2] it was greater than 20000 nM; in experiment [3], greater than 20000 nM; in experiment [4], 1 nM.
For `CCOC(=O)N1CC2(CC(N3CCC([C@@H]4CCCN4C(=O)NC)CC3)C2)C1` [Example 1-4, Ethyl 6-{4-[(2S)-1-(methylcarbamoyl)pyrrolidin-2-yl]piperidin-1-yl}-2-azaspiro[3.3]heptane-2-carboxylate], the Emax in experiment [1] stood at 71%; in experiment [2], 6%; in experiment [3], 7%; in experiment [4] it was 97%. Further, the EC50 in experiment [1] was 794 nM; in experiment [2], greater than 20000 nM; in experiment [3], greater than 20000 nM; in experiment [4], 15.8 nM.
Turning to `CCOC(=O)N1CC2(CC(N3CCC(N4CCC[C@@H]4c4cnco4)CC3)C2)C1` [Example 1-6], the maximal response (Emax) amounted to 67% in experiment [1], 4% in experiment [2], 16% in experiment [3] and 105% in experiment [4]. The EC50 is 631 nM in experiment [1], greater than 20000 nM in experiment [2], greater than 20000 nM in experiment [3] and 12.6 nM in experiment [4].
In the case of `CCOC(=O)N1CC2(CC(N3CCC(N4CCC[C@@H]4c4cn(C)c(=O)o4)CC3)C2)C1` [Example 1-7, Ethyl 6-{4-[(2R)-2-(3-methyl-2-oxo-2,3-dihydro-1 ,3-oxazol-5yl)pyrrolidin-1-yl]piperidin-1-yl}-2-azaspiro[3.3]heptane-2-carboxylate], the Emax in experiment [1] amounted to 12%; in experiment [2], 10%; in experiment [3] it was 6%; in experiment [4] it was 49%. The EC50 in experiment [1] was greater than 20000 nM; in experiment [2], greater than 20000 nM; in experiment [3], greater than 20000 nM; in experiment [4] it was 39.8 nM.
With `CCOC(=O)N1CC2(CC(N3CCC(N4CC(F)(F)C[C@@H]4CO)CC3)C2)C1` [Example 1-12, Ethyl 6-{4-[(2R)-4,4-difluoro-2-(hydroxymethyl)pyrrolidin-1-yl]piperidin-1-yl}-2-azaspiro[3.3]heptane-2-carboxylate], the Emax worked out at 63% in experiment [1], 7% in experiment [2], 11% in experiment [3] and 88% in experiment [4]. Further, the EC50 was 251 nM in experiment [1], greater than 20000 nM in experiment [2], greater than 20000 nM in experiment [3] and 31.6 nM in experiment [4].
